Measured values published in US11306084B2, “Integrin antagonists” (Saint Louis University, priority 2016, dated 2022).
Counter-ions that a name gives are not always drawn.

Columns and labels:
[1] = target: T1, Recombinant human integrin ανβ3 (Homo sapiens, UniProt P05106+P06756); test: Solid Phase Receptor Assay (SPRA) for ανβ3 function; assay type: binding; conditions: for IC50: plate-bound human vitronectin, read-out: αvβ3 SPRA IC50
T1 construct: purchased R&D Systems 3050-AV
Procedure: C. Solid Phase Receptor Assay (SPRA) for ανβ3 Function
Wells were washed 3 times with 150 μL TBS+ and then 150 μL of blocking buffer (TBS+ with 1% bovine serum albumin, Sigma A7906) was added. The plate was incubated for 1 hr at 37° C. and then washed 3× with TBS+ buffer. […] Compounds were diluted to 20 μM and then 1 μL was added to each well of the plate according to a standard template with each sample repeated in triplicate. After incubation for two hours at room temperature, the plate was washed 3× with 150 μL of TBS+ buffer. To each well, 50 μL of biotinylated anti-αν antibody (R&D Systems, BAF1219) at 0.5 μg/mL in TBS+/0.1% BSA were added and the plate covered and incubated for 1 hr at room temperature. After washing the plate 3× with 150 μL of TBS+ buffer, 50 μL of streptavidin-conjugated horseradish peroxidase (R&D Systems, DY998) diluted in TBS+ blocking buffer were added to the wells and the plate incubated for 20 min at room temperature. The plate was washed 3× with TBS+ buffer followed by 50 μL of TMB substrate (Sigma, T4444) added to each well in the dark and the plate was incubated for 25 min at room temperature. 25 μL of 1.0 M phosphoric acid was added as a stop solution and the plates were read at 450 nm using a Spectramax plate reader.

[2] = target: T2, Recombinant human integrin α5β1 (Homo sapiens, UniProt P05556+P08648); test: Solid Phase Receptor Assay (SPRA) for α5β1 function; assay type: binding; conditions: for IC50: plate-bound human fibronectin
T2 construct: purchased R&D Systems 3230-A5
T2 sequence (P08648 42-995 limits assumed): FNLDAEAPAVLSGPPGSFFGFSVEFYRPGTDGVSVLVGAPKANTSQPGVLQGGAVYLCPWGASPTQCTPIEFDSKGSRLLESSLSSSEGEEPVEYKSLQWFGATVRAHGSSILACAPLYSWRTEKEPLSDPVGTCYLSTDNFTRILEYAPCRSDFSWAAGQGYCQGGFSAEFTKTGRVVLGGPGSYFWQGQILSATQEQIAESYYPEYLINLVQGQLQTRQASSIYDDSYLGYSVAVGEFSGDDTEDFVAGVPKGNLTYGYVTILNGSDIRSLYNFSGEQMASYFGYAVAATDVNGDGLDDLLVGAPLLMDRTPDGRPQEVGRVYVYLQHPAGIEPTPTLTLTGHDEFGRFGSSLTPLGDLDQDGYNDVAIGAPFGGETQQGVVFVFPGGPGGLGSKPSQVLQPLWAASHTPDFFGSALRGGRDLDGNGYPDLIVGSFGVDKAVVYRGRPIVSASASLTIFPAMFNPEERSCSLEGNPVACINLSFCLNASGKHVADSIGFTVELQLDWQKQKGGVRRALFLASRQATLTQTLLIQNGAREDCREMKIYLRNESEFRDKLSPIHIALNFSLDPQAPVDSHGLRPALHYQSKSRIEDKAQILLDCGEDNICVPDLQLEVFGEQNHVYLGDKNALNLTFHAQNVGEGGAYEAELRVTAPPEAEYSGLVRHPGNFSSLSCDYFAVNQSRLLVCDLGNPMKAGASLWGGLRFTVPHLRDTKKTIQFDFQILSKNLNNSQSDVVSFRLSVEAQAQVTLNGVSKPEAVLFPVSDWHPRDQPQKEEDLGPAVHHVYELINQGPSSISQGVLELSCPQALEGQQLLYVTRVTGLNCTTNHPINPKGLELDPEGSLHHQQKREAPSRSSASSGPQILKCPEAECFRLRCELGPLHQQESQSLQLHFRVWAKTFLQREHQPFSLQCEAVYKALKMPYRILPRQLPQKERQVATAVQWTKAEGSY
T2 sequence (P05556 21-728 limits assumed): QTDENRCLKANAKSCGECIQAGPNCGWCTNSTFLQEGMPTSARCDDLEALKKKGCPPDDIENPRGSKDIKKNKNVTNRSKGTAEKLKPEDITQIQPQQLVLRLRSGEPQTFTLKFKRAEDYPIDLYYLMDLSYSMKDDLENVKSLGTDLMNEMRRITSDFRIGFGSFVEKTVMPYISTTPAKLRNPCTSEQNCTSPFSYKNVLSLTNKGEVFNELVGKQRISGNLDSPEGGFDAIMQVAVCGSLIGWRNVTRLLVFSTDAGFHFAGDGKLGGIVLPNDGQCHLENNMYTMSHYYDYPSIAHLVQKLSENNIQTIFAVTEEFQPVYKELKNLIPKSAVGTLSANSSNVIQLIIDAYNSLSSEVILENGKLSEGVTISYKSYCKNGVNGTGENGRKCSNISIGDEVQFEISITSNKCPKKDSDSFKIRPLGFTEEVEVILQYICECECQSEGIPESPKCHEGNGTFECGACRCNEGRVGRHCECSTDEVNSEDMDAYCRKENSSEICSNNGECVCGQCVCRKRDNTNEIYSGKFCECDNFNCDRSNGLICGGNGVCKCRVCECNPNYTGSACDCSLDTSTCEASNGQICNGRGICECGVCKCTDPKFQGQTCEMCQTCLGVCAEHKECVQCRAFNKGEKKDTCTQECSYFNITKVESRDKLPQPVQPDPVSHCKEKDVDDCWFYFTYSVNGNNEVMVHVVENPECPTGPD
Procedure: A. Solid Phase Receptor Assay (SPRA) for α5β1 Function
Wells were washed 3 times with 150 μL TBS+ and then 150 μL of blocking buffer (TBS+ with 1% bovine serum albumin, Sigma A7906) was added. The plate was incubated for 1 hr at 37° C. and then washed 3× with TBS+ buffer. […] Compounds were diluted to 20 μM and then 1 μL was added to each well of the plate according to a standard template with each sample repeated in triplicate. After incubation for two hours at room temperature, the plate was washed 3× with 150 μL of TBS+ buffer. To each well, 50 μL of biotinylated anti-α5 antibody (R&D Systems, BAF1864) at 0.5 μg/mL in TBS+/0.1% BSA were added and the plate covered and incubated for 1 hr at room temperature. After washing the plate 3× with 150 μL of TBS+ buffer, 50 μL of streptavidin-conjugated horseradish peroxidase (R&D Systems, DY998) diluted in TBS+ blocking buffer were added to the wells and the plate incubated for 20 min at room temperature. The plate was washed 3× with TBS+ buffer followed by 50 μL of room temperature TMB substrate (Sigma, T4444) added to each well in the dark and the plate incubated for 25 min at room temperature. 25 μL of 1.0 M phosphoric acid was added as a stop solution and the plates were read at 450 nm using a Spectramax plate reader.

T1 sequence (P06756 31-992 limits assumed): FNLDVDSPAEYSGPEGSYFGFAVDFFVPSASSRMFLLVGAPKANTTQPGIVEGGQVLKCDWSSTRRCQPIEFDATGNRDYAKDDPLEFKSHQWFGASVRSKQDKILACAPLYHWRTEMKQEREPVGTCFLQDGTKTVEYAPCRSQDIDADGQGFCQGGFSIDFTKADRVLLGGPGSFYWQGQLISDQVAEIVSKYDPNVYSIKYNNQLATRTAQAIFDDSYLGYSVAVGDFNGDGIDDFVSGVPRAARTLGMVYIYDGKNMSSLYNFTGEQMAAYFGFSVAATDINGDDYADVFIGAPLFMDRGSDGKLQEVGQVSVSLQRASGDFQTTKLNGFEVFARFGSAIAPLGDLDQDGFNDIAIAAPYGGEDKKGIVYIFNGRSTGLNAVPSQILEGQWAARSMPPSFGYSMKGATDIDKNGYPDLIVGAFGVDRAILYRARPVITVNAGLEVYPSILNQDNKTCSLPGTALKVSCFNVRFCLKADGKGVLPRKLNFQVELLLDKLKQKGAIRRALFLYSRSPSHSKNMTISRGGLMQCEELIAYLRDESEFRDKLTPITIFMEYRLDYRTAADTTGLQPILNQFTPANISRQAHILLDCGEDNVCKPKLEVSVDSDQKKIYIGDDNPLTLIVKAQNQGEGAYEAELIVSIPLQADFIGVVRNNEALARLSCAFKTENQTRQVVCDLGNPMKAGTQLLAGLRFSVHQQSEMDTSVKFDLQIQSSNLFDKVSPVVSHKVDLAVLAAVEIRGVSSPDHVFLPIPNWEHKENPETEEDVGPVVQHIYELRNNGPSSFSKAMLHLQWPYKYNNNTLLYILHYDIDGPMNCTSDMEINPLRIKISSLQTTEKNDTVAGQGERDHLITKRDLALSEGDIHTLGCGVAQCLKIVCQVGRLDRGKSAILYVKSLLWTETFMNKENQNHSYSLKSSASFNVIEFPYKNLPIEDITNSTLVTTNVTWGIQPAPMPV
T1 sequence (P05106 27-718 limits assumed): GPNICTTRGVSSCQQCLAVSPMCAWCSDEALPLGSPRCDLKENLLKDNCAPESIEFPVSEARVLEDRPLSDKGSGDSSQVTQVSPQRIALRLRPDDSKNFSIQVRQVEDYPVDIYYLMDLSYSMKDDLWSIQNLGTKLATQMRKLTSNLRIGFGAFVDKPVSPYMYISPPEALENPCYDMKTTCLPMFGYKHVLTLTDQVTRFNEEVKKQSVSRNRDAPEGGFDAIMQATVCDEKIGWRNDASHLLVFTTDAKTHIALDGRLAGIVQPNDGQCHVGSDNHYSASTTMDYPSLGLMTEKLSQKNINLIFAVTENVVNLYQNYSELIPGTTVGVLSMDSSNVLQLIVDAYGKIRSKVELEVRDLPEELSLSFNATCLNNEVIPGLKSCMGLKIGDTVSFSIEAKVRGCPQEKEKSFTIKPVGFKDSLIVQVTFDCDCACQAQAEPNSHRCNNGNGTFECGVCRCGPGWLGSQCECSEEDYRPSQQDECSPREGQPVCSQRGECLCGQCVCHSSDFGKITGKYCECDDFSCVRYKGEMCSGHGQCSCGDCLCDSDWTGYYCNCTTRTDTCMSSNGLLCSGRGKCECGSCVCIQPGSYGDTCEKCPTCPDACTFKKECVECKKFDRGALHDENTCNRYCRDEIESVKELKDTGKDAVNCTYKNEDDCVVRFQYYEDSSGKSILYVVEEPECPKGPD

| SMILES | IC50 [1] | IC50 [2] | inhibitory activity at ανβ3 (in words) [1] | inhibitory activity at α5β1 (in words) [2] |
| --- | --- | --- | --- | --- |
| Cn1nc(CC(CC(=O)O)c2cc(C(F)(F)F)cc(C(C)(C)C(F)(F)F)c2)cc1OCCc1ccc2c(n1)NCCC2 (centres unmarked) [Example 25, 4-[1-methyl-5-[2-(5,6,7,8-tetrahydro-1,8-naphthyridin-2-yl)ethoxy]pyrazol-3-yl]-3-[3-(2,2,2-trifluoro-1,1-dimethylethyl)-5-(trifluoromethyl)phenyl]butanoic Acid] | 4.6 nM | 12 nM | – | – |
| Cn1nc(CC(CC(=O)O)c2cc(Br)cc(C(C)(C)C(F)(F)F)c2)cc1OCCc1ccc2c(n1)NCCC2 (centres unmarked) [Example 26, 3-[3-bromo-5-(2,2,2-trifluoro-1,1-dimethyl-ethyl)phenyl]-4-[1-methyl-5-[2-(5,6,7,8-tetrahydro-1,8-naphthyridin-2-yl)ethoxy]pyrazol-3-yl]butanoic Acid] | 9.6 nM | 16 nM | – | – |
| Cn1nc(CC(CC(=O)O)c2cc(Cl)cc(C(C)(C)C(F)(F)F)c2)cc1OCCc1ccc2c(n1)NCCC2 (centres unmarked) [Example 27, 3-(3-chloro-5-(1,1,1-trifluoro-2-methylpropan-2-yl)phenyl)-4-(1-methyl-5-(2-(5,6,7,8-tetrahydro-1,8-naphthyridin-2-yl)ethoxy)-1H-pyrazol-3-yl)butanoic Acid] | 5.6 nM | 18 nM | – | – |
| Cn1nc(CC(CC(=O)O)c2cc(C#N)cc(C(C)(C)C(F)(F)F)c2)cc1OCCc1ccc2c(n1)NCCC2 (centres unmarked) [Example 28, 3-[3-cyano-5-(2,2,2-trifluoro-1,1-dimethyl-ethyl)phenyl]-4-[1-methyl-5-[2-(5,6,7,8-tetrahydro-1,8-naphthyridin-2-yl)ethoxyl]pyrazol-3-yl]butanoic Acid Trifluoroacetate] | 10 nM | 8.5 nM | – | – |
| COCC1(c2cc(Cl)cc(C(CC(=O)O)Cc3cc(OCCc4ccc5c(n4)NCCC5)n(C)n3)c2)CCOCC1 (centres unmarked) [Example 29, 3-(3-chloro-5-(4-(methoxymethyl)tetrahydro-2H-pyran-4-yl)phenyl)-4-(1-methyl-5-(2-(5,6,7,8-tetrahydro-1,8-naphthyridin-2-yl)ethoxy)-1H-pyrazol-3-yl)butanoic Acid] | 5.3 nM | 5.1 nM | – | – |
| COCC1(c2cc(F)cc(C(CC(=O)O)Cc3cc(OCCc4ccc5c(n4)NCCC5)n(C)n3)c2)CCOCC1 (centres unmarked) [Example 30, 3-(3-fluoro-5-(4-(methoxymethyl)tetrahydro-2H-pyran-4-yl)phenyl)-4-(1-methyl-5-(2-(5,6,7,8-tetrahydro-1,8-naphthyridin-2-yl)ethoxy)-1H-pyrazol-3-yl)butanoic Acid] | 8.1 nM | 12 nM | – | – |
| COCC1(c2cc(C(CC(=O)O)Cc3cc(OCCc4ccc5c(n4)NCCC5)n(C)n3)cc(C(F)(F)F)c2)CCOCC1 (centres unmarked) [Example 31, 3-(3-(4-(methoxymethyl)tetrahydro-2H-pyran-4-yl)-5-(trifluoromethyl)phenyl)-4-(1-methyl-5-(2-(5,6,7,8-tetrahydro-1,8-naphthyridin-2-yl)ethoxy)-1H-pyrazol-3-yl)butanoic Acid] | 6.5 nM | 12 nM | – | – |
| COc1ccc(C(C)(C)C)cc1C(CC(=O)O)Cc1cc(OCCc2ccc3c(n2)NCCC3)n(C)n1 (centres unmarked) [Example 32, 3-(5-(tert-butyl)-2-methoxyphenyl)-4-(1-methyl-5-(2-(5,6,7,8-tetrahydro-1,8-naphthyridin-2-yl)ethoxy)-1H-pyrazol-3-yl)butanoic Acid] | 380 nM | 33 nM | low activity | high inhibitory activity |
| COc1c(C(CC(=O)O)Cc2cc(OCCc3ccc4c(n3)NCCC4)n(C)n2)cccc1C(C)(C)C (centres unmarked) [Example 33, 3-(3-(tert-butyl)-2-methoxyphenyl)-4-(1-methyl-5-(2-(5,6,7,8-tetrahydro-1,8-naphthyridin-2-yl)ethoxy)-1H-pyrazol-3-yl)butanoic Acid] | 150 nM | 3900 nM | – | – |
| COc1cc(C(C)(C)C)ccc1C(CC(=O)O)Cc1cc(OCCc2ccc3c(n2)NCCC3)n(C)n1 (centres unmarked) [Example 34, 3-(4-(tert-butyl)-2-methoxyphenyl)-4-(1-methyl-5-(2-(5,6,7,8-tetrahydro-1,8-naphthyridin-2-yl)ethoxy)-1H-pyrazol-3-yl)butanoic Acid] | 4.6 nM | 550 nM | – | – |
| Cn1nc(CC(CC(=O)O)c2cc(OC(F)(F)F)cc(C(C)(C)C)c2)cc1OCCc1ccc2c(n1)NCCC2 (centres unmarked) [Example 36, 3-[3-tert-butyl-5-(trifluoromethoxy)phenyl]-4-[1-methyl-5-[2-(5,6,7,8-tetrahydro-1,8-naphthyridin-2-yl)ethoxy]pyrazol-3-yl]butanoic Acid] | 10 nM | 7.1 nM | – | – |
| Cn1nc(CC(CC(=O)O)c2cc(C(C)(C)C)cc(C(F)(F)F)c2)cc1OCCc1ccc2c(n1)NCCC2 (centres unmarked) [Example 37, 3-[3-tert-butyl-5-(trifluoromethyl)phenyl]-4-[1-methyl-5-[2-(5,6,7,8-tetrahydro-1,8-naphthyridin-2-yl)ethoxyl]pyrazol-3-yl]butanoic Acid] | 7.3 nM | 7.9 nM | – | – |
| Cn1nc(CC(CC(=O)O)c2cc(F)cc(C(C)(C)C)c2)cc1OCCc1ccc2c(n1)NCCC2 (centres unmarked) [Example 38, 3-(3-(tert-butyl)-5-fluorophenyl)-4-(1-methyl-5-(2-(5,6,7,8-tetrahydro-1,8-naphthyridin-2-yl)ethoxy)-1H-pyrazol-3-yl)butanoic Acid] | 7.9 nM | 23 nM | – | – |
| COc1ccc(C(C)C)cc1C(CC(=O)O)Cc1cc(OCCc2ccc3c(n2)NCCC3)n(C)n1 (centres unmarked) [Example 39, 3-(5-isopropyl-2-methoxyphenyl)-4-(1-methyl-5-(2-(5,6,7,8-tetrahydro-1,8-naphthyridin-2-yl)ethoxy)-1H-pyrazol-3-yl)butanoic Acid Trifluoroacetate] | 290 nM | 31 nM | – | – |
| CC(C)c1cc(Br)cc(C(CC(=O)O)Cc2cc(OCCc3ccc4c(n3)NCCC4)n(C)n2)c1 (centres unmarked) [Example 40, 3-(3-bromo-5-isopropyl-phenyl)-4-[1-methyl-5-[2-(5,6,7,8-tetrahydro-1,8-naphthyridin-2-yl)ethoxyl]pyrazol-3-yl]butanoic acid trifluoroacetate] | 7.2 nM | 21 nM | – | – |
| CC(C)(C)c1cc(Br)cc(C(CC(=O)O)Cc2cc(OCCc3ccc4c(n3)NCCC4)n(CC(F)(F)F)n2)c1 (centres unmarked) [Example 41, 3-(3-bromo-5-tert-butyl-phenyl)-4-[5-[2-(5,6,7,8-tetrahydro-1,8-naphthyridin-2-yl)ethoxy]-1-(2,2,2-trifluoroethyl)pyrazol-3-yl]butanoic Acid Trifluoroacetate] | 9 nM | 6.5 nM | – | – |
| Cn1nc(CC(CC(=O)O)c2cc(C(C)(C)C)ccc2O)cc1OCCc1ccc2c(n1)NCCC2 (centres unmarked) [Example 42, 3-(5-tert-butyl-2-hydroxy-phenyl)-4-[1-methyl-5-[2-(5,6,7,8-tetrahydro-1,8-naphthyridin-2-yl)ethoxyl]pyrazol-3-yl]butanoic Acid Sodium Salt] | 18 nM | 2.1 nM | – | – |
| Cn1nc(CC(CC(=O)O)c2cc(C(C)(C)C)ccc2Cl)cc1OCCc1ccc2c(n1)NCCC2 (centres unmarked) [Example 43, 3-(5-(tert-butyl)-2-chlorophenyl)-4-(1-methyl-5-(2-(5,6,7,8-tetrahydro-1,8-naphthyridin-2-yl)ethoxy)-1H-pyrazol-3-yl)butanoic Acid Trifluoroacetate] | 94.4 nM | 77 nM | – | – |
| Cc1ccc(C(C)(C)C)cc1C(CC(=O)O)Cc1cc(OCCc2ccc3c(n2)NCCC3)n(C)n1 (centres unmarked) [Example 44, 3-(5-tert-butyl-2-methyl-phenyl)-4-[1-methyl-5-[2-(5,6,7,8-tetrahydro-1,8-naphthyridin-2-yl)ethoxy]pyrazol-3-yl]butanoic Acid Trifluoroacetate] | 270 nM | 230 nM | – | – |
| COc1ccc(C#N)cc1C(CC(=O)O)Cc1cc(OCCc2ccc3c(n2)NCCC3)n(C)n1 (centres unmarked) [Example 46, 3-(5-cyano-2-methoxyphenyl)-4-(1-methyl-5-(2-(5,6,7,8-tetrahydro-1,8-naphthyridin-2-yl)ethoxy)-1H-pyrazol-3-yl)butanoic Acid Trifluoroacetate] | 9.9 nM | 51 nM | – | – |
| COc1ccc(C(N)=O)cc1C(CC(=O)O)Cc1cc(OCCc2ccc3c(n2)NCCC3)n(C)n1 (centres unmarked) [Example 47, 3-(5-carbamoyl-2-methoxyphenyl)-4-(1-methyl-5-(2-(5,6,7,8-tetrahydro-1,8-naphthyridin-2-yl)ethoxy)-1H-pyrazol-3-yl)butanoic Acid trifluoroacetate] | 4.9 nM | 13 nM | – | – |
